Results reported in PubChem BioAssay (NCI).
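Dose response: 5 concentrations. Exposure: 48 h. Format: 96-well plates. Endpoint: linear interpolation; highest concentration if not reached. GI50 = concentration required for 50% inhibition of growth. TGI marks complete inhibition of growth.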

Experiments:
Experiment in all cases: NCI tumour cell line growth inhibition, 48 h
[1] = test system: 786-0 renal
[2] = test system: SK-MEL-5 melanoma
[3] = test system: EKVX NSCLC
[4] = test system: HOP-92 NSCLC
[5] = test system: SF-539 CNS
[6] = test system: NCI-H23 lung
[7] = test system: UACC-62 melanoma
[8] = test system: OVCAR-5 ovarian
[9] = test system: SN12C renal

Structure (SMILES) | TGI [1] [µM] | TGI [2] [µM] | TGI [3] [µM] | TGI [4] [µM] | TGI [5] [µM] | TGI [6] [µM] | TGI [7] [µM] | TGI [8] [µM] | TGI [9] [µM] | GI50 [2] [µM] | GI50 [3] [µM] | GI50 [7] [µM] | GI50 [8] [µM]
O=C1c2c(F)c(F)c(F)c(F)c2SC2=Nc3cccc4cccc(c34)N12 | 16.9 | 28.4 | 26.5 | 6.7 | 14 | 10.9 | 11 | 30.9 | 10.4 |  |  |  | 
Clc1ccc(Nc2nnc(CNc3ccc(-c4nnc(Nc5ccc(Cl)cc5)o4)cc3)o2)cc1 | 21.8 | 33.4 | 44.4 | 48.7 | 36.3 | 36 | 27.8 | 40.7 | 36.9 |  |  |  | 
CCC1OC2C(CC=C(C)C)=C3OC(C)(O)C(C)(CC)C(=O)C3=C3OC(=O)C=C1C32 (stereo unspecified) | > 100 | 34.9 | > 100 | 71.2 | 23.1 | 70.7 | 83.4 | > 100 |  |  |  |  | 
CCOC(=O)CCC(C(=O)OCC)n1nnc2ccc(Nc3c(C)[n+]([O-])c4cc(F)c(OCC)cc4[n+]3[O-])cc21 (stereo unspecified) | > 100 | > 100 | > 100 | > 100 | 64.4 | > 100 | 43.1 | > 100 | > 100 |  |  |  | 
O=C1[C@H](O)[C@@H]2CCC[C@@]23CCCN13 | > 100 | > 100 | > 100 | > 100 | > 100 | > 100 | > 100 | > 100 | > 100 |  |  |  | 
O=C(CBr)NCCc1c[nH]c2ccccc12 | 2.74 | 2.46 | 3.72 | 4.88 | 3.52 | 3.19 | 3.29 | 3.47 | 2.65 |  |  |  | 
C=C(C)[C@@H]1CCC2=C(CC[C@]3(C)[C@@H]([C@@H](CCC=C(C)C)C(=O)O)[C@H](O)C[C@@]23C)[C@@]1(C)CCC(=O)O | > 100 | > 100 | > 100 | > 100 | > 100 | > 100 |  | > 100 | > 100 |  |  |  | 
CC(C)(CO)NC(=O)c1cccs1 | > 100 | > 100 | > 100 | > 100 |  | > 100 | > 100 | > 100 | > 100 |  |  |  | 
COc1cc2c(cc1OC)-c1[nH]c3ccc([N+](=O)[O-])cc3c1CC(=O)N2 | > 100 | 5.87 | > 84.3 | > 100 | 0.716 | > 100 | > 100 | > 83.2 | > 55.1 |  |  |  | 
COc1cc(O)c2c(=O)c(OC)c(-c3ccc(OC)c(OC)c3)oc2c1.[Sn] | > 100 | > 100 | > 100 |  | > 100 |  | > 100 | > 100 | > 100 | 32.9 | > 100 | > 100 | > 100
Cc1cc(N)c2cc(NC(=O)Nc3ccc4nc(C)cc(N)c4c3)ccc2n1 | > 100 | > 100 | > 100 | > 100 |  | > 100 | > 100 | > 100 | > 100 |  |  |  | 
COc1cc(C2c3cc4c(cc3OC(NNc3ccccc3)C2C)OCO4)cc(OC)c1O (stereo unspecified) | 15.6 | 3.68 | 69.9 | 24.5 | 2.98 | 29.4 | 6.03 | 18 | 4.63 |  |  |  | 
CC(=O)CC12NC(=O)N(C)N=C1N(C)C(=O)N(C)C2=O (stereo unspecified) | > 100 |  | > 100 | > 100 | 72.9 | > 100 | 73.3 | > 100 | > 100 |  |  |  | 
COc1cc(C(=O)N(C(=O)N2CCCCC2)c2ccccc2)cc(OC)c1OC | > 100 | > 100 | > 100 | > 100 | > 100 | > 100 | > 100 | > 100 | > 100 |  |  |  | 
COc1ccccc1[C@@H]1CCC2CC[C@@H](c3ccccc3OC)[N+]21Cc1ccccc1 (stereo partly specified) | 15.4 | 1.64 | 1.86 | 4.06 |  | 6.63 |  | 12.9 | 10.4 |  |  |  | 
O=C(c1cccnc1)N1N=C(c2ccc3c(c2)OCO3)CC1(O)c1cc(F)c(Cl)cc1Cl (stereo unspecified) | 35.2 | 28.8 | 64.5 | 68.9 | 33.6 | > 100 |  | 49.4 | 36.5 |  |  |  | 
N#Cc1c(O)c(C=O)c(=O)n2c1[nH]c1ccccc12 | > 100 | > 100 | > 100 | > 100 | > 100 | > 100 | > 100 | > 100 | > 100 |  |  |  | 
O=C1C(=O)N(C23CC4CC(CC(C4)C2)C3)C(=S)N1c1ccccc1 | > 100 | > 100 | > 100 | > 100 | > 100 | > 100 | > 100 | > 100 | > 100 |  |  |  | 
O=C(NCCC1CN(S(=O)(=O)C(F)(F)F)c2ccccc21)OCc1ccccc1 (stereo unspecified) | > 100 | > 100 | > 100 | > 100 |  | > 100 | > 100 | > 100 |  |  |  |  | 
CCN(CCN(CC)C(=O)NC)C(=O)NC | > 100 | > 100 | > 100 | > 100 |  | > 100 | > 100 | > 100 | > 100 |  |  |  | 
COc1ccc(Oc2nc3c(N)cc(C(F)(F)F)cc3nc2-c2ccccc2)cc1 | 56.4 | > 100 | 28.9 | > 100 | > 100 | > 100 | > 100 |  |  |  |  |  | 
CCOP(=O)(OCC)C(C)(CC)/N=C(\N)NC#N (stereo unspecified) | > 100 | > 100 | > 100 |  | > 100 | > 100 | > 100 | > 100 | > 100 |  |  |  | 
COc1ccc(C=NCCCN=Cc2ccc(OC)cc2O)c(O)c1 | > 100 |  | > 100 | 68.8 |  | > 100 | > 100 | > 100 | 90.6 |  |  |  | 
COC(=O)CN(CC1O[C@@H]2OC(C)(C)O[C@@H]2C1NC(C)=O)C(=O)OCc1ccccc1 (stereo partly specified) | > 100 | > 100 | > 100 | > 100 | > 100 |  | > 100 | > 100 | > 100 |  |  |  | 
